Kd data for one compound are collected here from PMC7068051, “Thermal stability, ligand binding and allergenicity data of Mus m 1.0102 allergen and its cysteine mutants” (Data in Brief, 2020).

Positions count from the first letter of the chain named.

Holding throughout (assay): direct fluorescence titration (ex […] nm, em […] nm), nonlinear regression
What all share (format): binding

Assay [1] concerns the target T1, Mus m 1.0102 (Mus musculus, UniProt P11589, C175A).
T1 construct: gene Mup2; recombinant lipocalin allergen
T1 sequence (P11589 19-180 C175A): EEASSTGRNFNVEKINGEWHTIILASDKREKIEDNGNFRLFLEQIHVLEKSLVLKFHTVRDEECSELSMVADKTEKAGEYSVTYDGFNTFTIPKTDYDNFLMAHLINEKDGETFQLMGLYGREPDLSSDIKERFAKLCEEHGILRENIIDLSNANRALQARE

The target of assay [2] is T2, Mus m 1.0102 (Mus musculus, UniProt P11589, C156A).
T2 construct: gene Mup2; recombinant lipocalin allergen
T2 sequence (P11589 19-180 C156A): T1 sequence (P11589 19-180 C175A) with C138A, A157C
The note with it: 20 nM protein, Tris-HCl 10 mM pH 7.2, 25 °C; hydrophobic pocket.

Assay [3] concerns the target T3, Mus m 1.0102 (Mus musculus, UniProt P11589, C156A/C175A).
T3 construct: gene Mup2; recombinant lipocalin allergen
T3 sequence (P11589 19-180 C156A/C175A): T1 sequence (P11589 19-180 C175A) with C138A
The note with it: 20 nM protein, Tris-HCl 10 mM pH 7.2, 25 °C; hydrophobic pocket.

The target of assay [4] is T4, Mus m 1.0102 (Mus musculus, UniProt P11589).
T4 construct: gene Mup2; recombinant lipocalin allergen
T4 sequence (P11589 19-180): T1 sequence (P11589 19-180 C175A) with A157C
The following applies: 20 nM protein, Tris-HCl 10 mM pH 7.2, 25 °C; hydrophobic pocket.

Consider `c1ccc(Nc2cccc3ccccc23)cc1` [N-Phenyl-1-naphthylamine], for which the Kd stood at 0.0855 ± 0.0137 µM in assay [1], 0.0338 ± 0.0064 µM in assay [2], 0.0452 ± 0.004 µM in assay [3] and 0.025 ± 0.0015 µM in assay [4].
